Data: patent US10537563B2, “Methods for treating ocular disease using inhibitors of CSF-1R” (NOVARTIS AG, priority 2016, dated 2020)

Tests used:
PAK4 = PAK4 (Homo sapiens, UniProt O96013); assay: In vitro kinase assay (Table 1); type: biochemical
Abl = Abl (Homo sapiens, UniProt P00519); assay: In vitro kinase assay (Table 1); type: biochemical
Pim3 = Pim3 (Homo sapiens, UniProt Q86V86); assay: In vitro kinase assay (Table 1); type: biochemical
PIK3C_VPS34 = PIK3C_VPS34 (Homo sapiens, UniProt Q8NEB9); assay: In vitro kinase assay (Table 1); type: biochemical
BAF/Tel-Lck-2.1/sACP = molecular target: T1, BAF/Tel-Lck-2.1/sACP (Homo sapiens, UniProt P06239); assay: BaF3 proliferation assay; type: cell-based, murine
T1 construct: fused on or other part: P41212 (Transcription factor ETV6)

Hyl = Hyl (Homo sapiens, UniProt P42679); assay: In vitro kinase assay (Table 1); type: biochemical
BAF/Tel-KDR-Q4/sACP = molecular target: T2, BAF/Tel-KDR-Q4/sACP (Homo sapiens, UniProt P35968); assay: BaF3 proliferation assay; type: cell-based, murine
T2 construct: fused on or other part: P41212 (Transcription factor ETV6)

BAF/Tel-FLT4-Q2/sACP = molecular target: T3, BAF/Tel-FLT4-Q2/sACP (Homo sapiens, UniProt P35916); assay: BaF3 proliferation assay; type: cell-based, murine
T3 construct: fused on or other part: P41212 (Transcription factor ETV6)

human macrophages = assay: In vitro survival of human macrophages (CellTiter-Glo); type: cell-based; details: 1 and 10 μM
Method: (§1) Freshly isolated human PBMCs were used to purify human monocytes by negative selection using an indirect magnetic labeling system. […] Soluble factors such as cytokines (VEGFa, IL-6 etc.) and chemokines (IL-8, MCP-1, MMP9 etc.) in the culture supernatant were measured using commercial ELISA kits. The in vitro survival of human macrophages was measured using a commercially available CellTiter-Glo® system. Most observed results were repeated in multiple donors (n>5).

Alk = Alk (Homo sapiens, UniProt Q9UM73); assay: In vitro kinase assay (Table 1); type: biochemical
BaF-Tpr-MET = molecular target: T4, BaF-Tpr-MET (Homo sapiens, UniProt P08581); assay: BaF3 proliferation assay; type: cell-based, murine
T4 construct: expressed in transfected cells; host or cells: BaF3 (murine pro-B cell line); the other entry of the earlier key: TPR (P12270, Nucleoprotein TPR)

CSF_1_RK (h) = molecular target: T5, CSF_1_RK (h) (Homo sapiens, UniProt P07333); assay: Kinase profiling at Invitrogen; type: biochemical
T5 construct: purchased Invitrogen

Blk = Blk (Homo sapiens, UniProt P51451); assay: In vitro kinase assay (Table 1); type: biochemical
BAF/Tel-InsR-Q.4/sACP = molecular target: T6, BAF/Tel-InsR-Q.4/sACP (Homo sapiens, UniProt P06213); assay: BaF3 proliferation assay; type: cell-based, murine
T6 construct: fused on or other part: P41212 (Transcription factor ETV6)

PAK2 = PAK2 (Homo sapiens, UniProt Q13177); assay: In vitro kinase assay (Table 1); type: biochemical
[1] = test system: all other BaF3 cell lines; assay: BaF3 proliferation assays, all other cell lines; type: cell-based, murine; details: Mus musculus, read-out: Cellular EC50, all other BaF3 cell lines
COT = COT (Homo sapiens, UniProt P41279); assay: In vitro kinase assay (Table 1); type: biochemical
Dyrk3 = Dyrk3 (Homo sapiens, UniProt O43781); assay: In vitro kinase assay (Table 1); type: biochemical
BAF/Tel-JAK1-S1.2/sACP = molecular target: T7, BAF/Tel-JAK1-S1.2/sACP (Homo sapiens, UniProt P23458); assay: BaF3 proliferation assay; type: cell-based, murine
T7 construct: fused on or other part: P41212 (Transcription factor ETV6)

BAF/Tel-MET-3.1/sACP = molecular target: T8, BAF/Tel-MET-3.1/sACP (Homo sapiens, UniProt P08581); assay: BaF3 proliferation assay; type: cell-based, murine
T8 construct: fused on or other part: P41212 (Transcription factor ETV6)

Insulin RK = Insulin RK (Homo sapiens, UniProt P06213); assay: In vitro kinase assay (Table 1); type: biochemical
smMLCK = smMLCK (Homo sapiens, UniProt Q15746); assay: In vitro kinase assay (Table 1); type: biochemical
[2] = test system: cytokine-polarized human macrophages (M1 or M2); assay: Survival of fully differentiated, cytokine-polarized human macrophages; type: cell-based
Method: as §1

PKC_epsilon = PKC_epsilon (Homo sapiens, UniProt Q02156); assay: In vitro kinase assay (Table 1); type: biochemical
Ron = Ron (Homo sapiens, UniProt Q04912); assay: In vitro kinase assay (Table 1); type: biochemical
[3] = test system: MCSF-dependent proliferation; assay: MCSF-dependent proliferation; type: cell-based; details: read-out: MCSF-dependent proliferation cellular EC50
Nek2 = Nek2 (Homo sapiens, UniProt P51955); assay: In vitro kinase assay (Table 1); type: biochemical
BaF-wt = assay: BaF3 proliferation assay; type: cell-based, murine; details: Mus musculus
Ck1 delta = Ck1 delta (Homo sapiens, UniProt P48730); assay: In vitro kinase assay (Table 1); type: biochemical
human monocytes = assay: Human monocyte survival in culture; type: cell-based; details: concentration dependent effect
Method: as §1

RAF1_4_CR = RAF1_4_CR (Homo sapiens, UniProt P04049); assay: In vitro kinase assay (Table 1); type: biochemical
Syk = Syk (Homo sapiens, UniProt P43405); assay: In vitro kinase assay (Table 1); type: biochemical
Aurora_A = Aurora_A (Homo sapiens, UniProt O14965); assay: In vitro kinase assay (Table 1); type: biochemical
BAF/Tel-RET-Q1/sACP = molecular target: T9, BAF/Tel-RET-Q1/sACP (Homo sapiens, UniProt P07949); assay: BaF3 proliferation assay; type: cell-based, murine
T9 construct: fused on or other part: P41212 (Transcription factor ETV6)

VEGF = assay: Interaction with VEGF versus CSF-1 receptor signaling; details: at concentrations where the signaling of the CSF-1 receptor is strongly or completely inhibited
PAK1 = PAK1 (Homo sapiens, UniProt Q13153); assay: In vitro kinase assay (Table 1); type: biochemical
PIK4Cbeta = PIK4Cbeta (Homo sapiens, UniProt Q9UBF8); assay: In vitro kinase assay (Table 1); type: biochemical
Sequence of PIK4Cbeta (Q9UBF8 whole entry): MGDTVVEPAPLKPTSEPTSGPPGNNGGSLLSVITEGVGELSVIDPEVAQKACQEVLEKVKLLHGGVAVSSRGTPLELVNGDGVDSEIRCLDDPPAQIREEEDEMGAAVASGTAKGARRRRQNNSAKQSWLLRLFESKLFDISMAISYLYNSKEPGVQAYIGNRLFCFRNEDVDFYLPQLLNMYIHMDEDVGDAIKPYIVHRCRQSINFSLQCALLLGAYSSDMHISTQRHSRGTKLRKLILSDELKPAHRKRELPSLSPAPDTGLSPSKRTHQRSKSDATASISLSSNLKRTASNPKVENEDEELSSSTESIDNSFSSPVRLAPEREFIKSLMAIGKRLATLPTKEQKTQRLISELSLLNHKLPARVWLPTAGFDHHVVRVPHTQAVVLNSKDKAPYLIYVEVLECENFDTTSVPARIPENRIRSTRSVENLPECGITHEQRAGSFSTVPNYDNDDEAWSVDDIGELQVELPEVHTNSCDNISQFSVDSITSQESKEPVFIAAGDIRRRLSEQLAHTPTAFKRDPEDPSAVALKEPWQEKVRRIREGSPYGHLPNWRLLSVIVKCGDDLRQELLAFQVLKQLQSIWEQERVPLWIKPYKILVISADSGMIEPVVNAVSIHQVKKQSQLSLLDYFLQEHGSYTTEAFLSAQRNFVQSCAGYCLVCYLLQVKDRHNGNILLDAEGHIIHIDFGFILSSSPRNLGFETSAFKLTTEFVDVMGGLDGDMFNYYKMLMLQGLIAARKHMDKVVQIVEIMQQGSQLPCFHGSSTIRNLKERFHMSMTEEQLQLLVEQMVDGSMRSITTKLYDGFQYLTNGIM

T5 sequence (P07333 20-972): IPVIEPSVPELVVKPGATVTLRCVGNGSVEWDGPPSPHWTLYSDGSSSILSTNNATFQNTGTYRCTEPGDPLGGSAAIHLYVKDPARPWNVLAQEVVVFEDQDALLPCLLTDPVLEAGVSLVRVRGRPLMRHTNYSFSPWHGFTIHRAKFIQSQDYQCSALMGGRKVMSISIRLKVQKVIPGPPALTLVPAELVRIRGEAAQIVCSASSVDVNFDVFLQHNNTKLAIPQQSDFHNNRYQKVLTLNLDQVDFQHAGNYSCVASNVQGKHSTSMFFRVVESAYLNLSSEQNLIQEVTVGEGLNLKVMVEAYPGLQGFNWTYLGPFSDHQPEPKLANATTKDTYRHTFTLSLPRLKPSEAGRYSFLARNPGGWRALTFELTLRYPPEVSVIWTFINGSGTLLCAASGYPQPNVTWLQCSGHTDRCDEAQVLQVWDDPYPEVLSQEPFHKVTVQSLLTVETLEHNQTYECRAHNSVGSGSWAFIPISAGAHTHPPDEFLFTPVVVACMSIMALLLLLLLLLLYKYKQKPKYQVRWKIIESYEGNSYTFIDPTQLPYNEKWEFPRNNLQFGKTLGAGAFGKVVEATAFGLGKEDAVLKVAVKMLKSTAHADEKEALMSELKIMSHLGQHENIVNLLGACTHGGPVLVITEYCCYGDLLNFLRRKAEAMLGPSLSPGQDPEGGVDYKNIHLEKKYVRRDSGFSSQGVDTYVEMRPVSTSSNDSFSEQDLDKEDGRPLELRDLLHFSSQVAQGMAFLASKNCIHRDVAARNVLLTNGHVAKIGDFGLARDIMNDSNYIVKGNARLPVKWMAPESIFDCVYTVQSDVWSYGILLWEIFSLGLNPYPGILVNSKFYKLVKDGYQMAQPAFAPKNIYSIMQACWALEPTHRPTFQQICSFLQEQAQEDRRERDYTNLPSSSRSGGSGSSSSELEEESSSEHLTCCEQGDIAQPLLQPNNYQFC
Sequence of PAK2 (Q13177 whole entry, species assumed): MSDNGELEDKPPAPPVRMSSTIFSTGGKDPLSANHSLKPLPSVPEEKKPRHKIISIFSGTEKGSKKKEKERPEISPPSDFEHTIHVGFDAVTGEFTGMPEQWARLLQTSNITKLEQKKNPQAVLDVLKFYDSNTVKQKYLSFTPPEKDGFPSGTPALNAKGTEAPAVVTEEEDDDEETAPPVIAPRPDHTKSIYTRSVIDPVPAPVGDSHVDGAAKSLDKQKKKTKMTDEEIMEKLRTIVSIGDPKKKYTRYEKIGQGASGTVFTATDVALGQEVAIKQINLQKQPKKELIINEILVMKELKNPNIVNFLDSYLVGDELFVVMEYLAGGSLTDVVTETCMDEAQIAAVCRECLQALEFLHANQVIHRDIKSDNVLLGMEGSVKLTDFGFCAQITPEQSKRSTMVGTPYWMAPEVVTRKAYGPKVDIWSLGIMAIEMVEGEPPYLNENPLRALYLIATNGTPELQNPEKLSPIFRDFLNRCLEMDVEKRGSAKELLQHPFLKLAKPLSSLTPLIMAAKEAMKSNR
Sequence of COT (P41279 whole entry): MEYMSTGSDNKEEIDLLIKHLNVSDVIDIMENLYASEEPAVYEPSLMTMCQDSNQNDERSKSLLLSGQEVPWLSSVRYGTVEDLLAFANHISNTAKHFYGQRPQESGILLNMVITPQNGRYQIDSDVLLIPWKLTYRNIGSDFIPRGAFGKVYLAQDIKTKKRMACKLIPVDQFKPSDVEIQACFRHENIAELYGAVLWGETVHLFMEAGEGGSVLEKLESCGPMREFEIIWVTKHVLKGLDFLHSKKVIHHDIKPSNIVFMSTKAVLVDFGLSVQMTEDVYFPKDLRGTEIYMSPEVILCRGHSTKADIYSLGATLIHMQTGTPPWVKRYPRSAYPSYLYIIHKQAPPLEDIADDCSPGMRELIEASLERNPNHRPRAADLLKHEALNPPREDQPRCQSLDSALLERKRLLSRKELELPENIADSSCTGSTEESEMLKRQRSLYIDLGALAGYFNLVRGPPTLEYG
T4 sequence (P08581 with tags, fused parts or gaps): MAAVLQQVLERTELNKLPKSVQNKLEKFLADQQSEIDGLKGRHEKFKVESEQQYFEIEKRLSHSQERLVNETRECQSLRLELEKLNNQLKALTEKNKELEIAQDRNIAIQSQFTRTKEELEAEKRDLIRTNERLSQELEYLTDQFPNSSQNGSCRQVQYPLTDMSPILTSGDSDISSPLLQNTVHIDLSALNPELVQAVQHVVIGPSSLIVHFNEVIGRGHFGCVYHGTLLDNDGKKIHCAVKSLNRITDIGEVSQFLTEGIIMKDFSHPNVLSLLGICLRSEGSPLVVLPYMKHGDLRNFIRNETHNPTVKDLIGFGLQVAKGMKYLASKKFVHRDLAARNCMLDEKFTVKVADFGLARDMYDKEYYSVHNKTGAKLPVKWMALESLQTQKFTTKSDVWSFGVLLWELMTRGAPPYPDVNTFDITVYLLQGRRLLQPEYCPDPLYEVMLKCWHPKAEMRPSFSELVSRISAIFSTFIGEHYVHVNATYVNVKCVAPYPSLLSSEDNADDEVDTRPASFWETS
Sequence of Blk (P51451 whole entry, species assumed): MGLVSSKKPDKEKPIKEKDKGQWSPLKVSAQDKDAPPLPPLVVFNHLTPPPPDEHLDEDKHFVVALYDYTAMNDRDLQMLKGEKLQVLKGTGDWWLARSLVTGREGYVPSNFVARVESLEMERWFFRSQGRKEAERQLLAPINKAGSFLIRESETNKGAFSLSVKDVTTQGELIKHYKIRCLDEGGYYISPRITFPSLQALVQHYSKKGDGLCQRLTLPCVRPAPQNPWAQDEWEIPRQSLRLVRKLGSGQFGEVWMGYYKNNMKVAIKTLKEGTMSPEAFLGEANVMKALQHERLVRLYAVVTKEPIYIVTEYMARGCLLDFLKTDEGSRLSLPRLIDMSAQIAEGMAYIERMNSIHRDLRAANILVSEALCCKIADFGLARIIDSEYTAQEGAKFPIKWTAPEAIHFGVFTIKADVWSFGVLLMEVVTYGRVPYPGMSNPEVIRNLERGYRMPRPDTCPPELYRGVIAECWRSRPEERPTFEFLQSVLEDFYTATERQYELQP
T1 sequence (P06239 245-498 limits assumed, change not shown): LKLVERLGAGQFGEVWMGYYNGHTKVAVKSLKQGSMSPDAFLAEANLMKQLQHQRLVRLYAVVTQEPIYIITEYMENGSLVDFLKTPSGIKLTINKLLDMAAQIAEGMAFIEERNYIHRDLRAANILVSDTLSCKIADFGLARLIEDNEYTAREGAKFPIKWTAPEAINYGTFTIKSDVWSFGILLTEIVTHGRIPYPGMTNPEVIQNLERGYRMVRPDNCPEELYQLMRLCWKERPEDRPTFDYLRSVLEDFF
Sequence of PAK1 (Q13153 whole entry): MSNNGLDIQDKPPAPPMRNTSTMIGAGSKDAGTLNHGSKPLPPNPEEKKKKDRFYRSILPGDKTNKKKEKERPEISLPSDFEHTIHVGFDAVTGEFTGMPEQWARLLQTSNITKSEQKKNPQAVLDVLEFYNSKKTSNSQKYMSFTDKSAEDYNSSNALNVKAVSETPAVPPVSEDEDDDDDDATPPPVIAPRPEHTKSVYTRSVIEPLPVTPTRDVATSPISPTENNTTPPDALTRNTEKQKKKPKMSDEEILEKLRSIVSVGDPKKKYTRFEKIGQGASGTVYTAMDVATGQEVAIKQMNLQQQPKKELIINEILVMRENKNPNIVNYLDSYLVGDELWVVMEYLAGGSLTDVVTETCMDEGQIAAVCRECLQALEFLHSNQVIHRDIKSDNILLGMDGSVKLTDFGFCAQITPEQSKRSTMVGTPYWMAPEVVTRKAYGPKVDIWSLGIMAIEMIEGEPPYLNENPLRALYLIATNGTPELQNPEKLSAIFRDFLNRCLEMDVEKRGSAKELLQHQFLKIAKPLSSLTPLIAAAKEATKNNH
T3 sequence (P35916 845-1173 limits assumed, change not shown): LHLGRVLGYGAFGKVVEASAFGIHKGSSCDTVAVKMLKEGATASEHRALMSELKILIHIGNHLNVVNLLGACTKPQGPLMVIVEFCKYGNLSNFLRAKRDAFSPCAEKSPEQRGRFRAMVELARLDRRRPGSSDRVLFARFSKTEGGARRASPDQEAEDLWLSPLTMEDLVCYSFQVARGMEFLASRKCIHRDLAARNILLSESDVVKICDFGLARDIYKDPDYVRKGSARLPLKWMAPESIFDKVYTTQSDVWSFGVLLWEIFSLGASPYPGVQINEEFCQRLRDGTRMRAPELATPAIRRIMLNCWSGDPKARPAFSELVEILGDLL

With CNC(=O)c1cc(Oc2ccc3nc(NC4CCCCC4O)sc3c2)ccn1 (stereo not drawn) [Compound (I)] the IC50 (PAK4) was > 10 µM, the IC50 (Abl) was > 10 µM and the IC50 (Pim3) was > 25 µM. For the same compound, the IC50 (PIK3C_VPS34) was > 25 µM, the EC50 (BAF/Tel-Lck-2.1/sACP) was > 10 µM and the IC50 (Hyl) was > 10 µM. The EC50 (BAF/Tel-KDR-Q4/sACP) was > 10 µM, the EC50 (BAF/Tel-FLT4-Q2/sACP) was > 10 µM and the “viability of human macrophages (CTG values and light microscope pictures)” value (human macrophages) was “decreased the viability”. The IC50 (Alk) was > 10 µM, the EC50 (BaF-Tpr-MET) was > 10 µM and the inhibition at 0.5 µM (CSF_1_RK (h); read-out: % inhibition @ 0.5 μM, CSF_1_RK (h)) was 97%. For the same compound, the inhibition at 5 µM (CSF_1_RK (h); read-out: % inhibition @ 5 μM, CSF_1_RK (h)) was 99%, the inhibition at 20 µM (CSF_1_RK (h); read-out: % inhibition @ 20 μM, CSF_1_RK (h)) was 95% and the IC50 (Blk) was > 10 µM. For the same compound, the EC50 (BAF/Tel-InsR-Q.4/sACP) was > 10 µM, the IC50 (PAK2) was > 25 µM and the EC50 [1] was > 10 µM. The IC50 (COT) was > 25 µM, the IC50 (Dyrk3) was > 10 µM and the EC50 (BAF/Tel-JAK1-S1.2/sACP) was > 10 µM. The EC50 (BAF/Tel-MET-3.1/sACP) was > 10 µM, the IC50 (Insulin RK) was > 10 µM and the IC50 (smMLCK) was > 10 µM. The “survival of fully differentiated, cytokine-polarized human macrophages (M1 or M2)” value [2] was “did not affect”, the IC50 (PKC_epsilon) was > 25 µM and the IC50 (Ron) was > 10 µM. The EC50 [3] was < 0.071 µM, the IC50 (Nek2) was > 10 µM and the EC50 (BaF-wt) was > 10 µM. The IC50 (Ck1 delta) was > 10 µM, the “concentration at which monocyte survival was significantly affected” value (human monocytes) was ≥ 0.6 µM and the IC50 (RAF1_4_CR) was > 25 µM. The IC50 (Syk) was > 10 µM, the IC50 (Aurora_A) was > 10 µM and the EC50 (BAF/Tel-RET-Q1/sACP) was > 10 µM. For the same compound, the “interaction with VEGF” value (VEGF) was “not to interact strongly”, the IC50 (PAK1) was > 25 µM and the IC50 (PIK4Cbeta) was > 25 µM.
